This is an account of results in patent US7179814B2, “Agents for controlling plant pests” (priority 1998, dated 2007).

The structures appear in SMILES notation. Read-outs that look alike come from different tables or passages of the source.

Holding throughout (format): in vivo
Test [1] has as its system Fusarium culmorum. Nature of the test: Fusarium culmorum test (wheat)/seed treatment. The note with it: 75 g/ha, dry seed dressing, approximately 3 weeks after sowing. Here is the method:
The active compounds are applied as a dry dressing. They are prepared by extending the active compound in question with ground minerals to give a finely pulverulent mixture which ensures even distribution on the surface of the seeds.
For the dressing, the infected seeds are shaken with the dressing in a closed glass bottle for 3 minutes.
2×100 seeds of the wheat are sown at a depth of 1 cm into standard soil, and the wheat is cultivated in a greenhouse at a temperature of approximately 18° C. and at a relative atmospheric humidity of approximately 95% in seed containers receiving 15 hours of light per day.
The evaluation of the plants for symptoms is carried out approximately 3 weeks after sowding. 0% means an efficacy which corresponds to that of the control, whereas an efficacy of 100% means that no infection is observed.

In test [2] the test system is Heliothis virescens caterpillars. Nature of the test: Heliothis virescens test (soya bean shoot dip). As to conditions: concentration 0.00016 %. Here is the method:
(§1) To produce a suitable preparation of active compound, 1 part by weight of an active compound or an active compound combination is mixed with the stated amounts of solvent and emulsifier, and the concentrate is diluted with water to the desired concentration.
Soya bean shoots (Glycine max) are treated by being dipped into the active compound preparation of the desired concentration and are populated with Heliothis virescens caterpillars while the leaves are still moist.
After the desired period of time, the kill in % is determined. 100% means that all caterpillars have been killed; 0% means that none of the caterpillars have been killed.

Test [3] deals with Spodoptera frugiperda. Nature of the test: Critical concentration test/soil insects, Spodoptera frugiperda. The note with it: 120 h, 5 days after infestation, read-out: Kill in %. Here is the method: (§2) To produce a suitable preparation of active compound, 1 part by weight of the active compound or the active compound mixture is mixed with the stated amounts of solvent and emulsifier, and the concentrate is diluted with water to the desired concentration.
(§3) The active compound preparation is mixed intimately with soil. Here, the concentration of the active compound in the preparation is almost irrelevant; only the amount by weight of active compound or active compound mixture per volume unit of soil, which is stated in ppm (mg/l), matters.
Soil is filled into 0.5 l pots and these are allowed to stand at 20° C. Immediately after preparation, 3 pre-germinated maize corns are placed into each pot. After the maize corns have emerged, boring sleeves are placed onto the pots. 9 days after preparation, the maize is populated with the test insects. After a further 5 days, the kill in % is determined. 100% means that all test insects have been killed; 0% means that the number of insects which are still alive is the same as for the untreated control.

The subject of test [4] is Sphaerotheca fuliginea. As to the kind of experiment: Sphaerotheca test (cucumber)/protective. The note with it: 10 g/ha, single active compound, 10 days after inoculation. As for the experimental part: (§4) To produce a suitable preparation of active compound, 1 part by weight of active compound or active compound combination is mixed with the stated amounts of solvent and emulsifier, and the concentrate is diluted with water to the desired concentration, or a commercial formulation of active compound or active compound combination is diluted with water to the desired concentration.
To test for protective activity, young plants are sprayed with the commercial active compound preparation at the stated application rate. After the spray coating has dried on, the plants are inoculated with an aqueous spore suspension of Sphaerotheca fuliginea. The plants are then placed in a greenhouse at approximately 23° C. and a relative atmospheric humidity of approximately 70%.
Evaluation is carried out 10 days after the inoculation. 0% means an efficacy which corresponds to that of the control, whereas an efficacy of 100% means that no infection is observed.

Test [5] concerns Phytophthora infestans. As to conditions: single active compound.
For test [6], the system named is Pyrenophora teres. Nature of the test: Pyrenophora teres test (barley)/protective. The note with it: single active compound. As for the experimental part: as §4
To test for protective activity, young plants are sprayed with the active compound preparation at the stated application rate. After the spray coating has dried on, the plants are sprayed with a conidia suspension of Pyrenophora teres. The plants remain in an incubation cabin at 20° C. and 100% relative atmospheric humidity for 48 hours.
The plants are then placed in a greenhouse at a temperature of approximately 20° C. and a relative atmospheric humidity of approximately 80%.
Evaluation is carried out 7 days after the inoculation. 0% means an efficacy which corresponds to that of the control, whereas an efficacy of 100% means that no infection is observed.

For test [7], the system named is larvae of the mustard beetle (Phaedon cochleariae). Nature of the test: Phaedon larvae test (cabbage leaf dip). Here is the method:
as §1
Cabbage leaves (Brassica oleracea) are treated by being dipped into the preparation of active compound of the desired concentration and are populated with larvae of the mustard beetle (Phaedon cochleariae) while the leaves are still moist.
After the desired period of time, the kill in % is determined. 100% means that all beetle larvae have been killed; 0% means that none of the beetle larvae have been killed.

Test [8] concerns caterpillars of the diamondback moth (Plutella xylostella). Nature of the test: Plutella test (cabbage leaf dip). Here is the method:
as §1
Cabbage leaves (Brassica oleracea) are treated by being dipped into the preparation of active compound of the desired concentration and are populated with caterpillars of the diamondback moth (Plutella xylostella) while the leaves are still moist.
After the desired period of time, the kill in % is determined 100% means that all caterpillars have been killed; 0% means that none of the caterpillars have been killed.

Test [9] has as its system Diabrotica balteata - larvae in the soil. As to the kind of experiment: Critical concentration test/soil insects, Diabrotica balteata (Example Q). The note with it: 1.25 ppm in soil; efficacy calculated from number of emerged maize plants. As for the experimental part:
To produce a suitable preparation of active compound, 1 part by weight of active compound is mixed with the stated amount of solvent, the stated amount of emulsifier is added and the concentrate is diluted with water to the desired concentration. Here, the concentration of the active compound in the preparation is almost irrelevant; only the amount by weight of active compound per volume unit of soil, which is stated in ppm (mg/l), matters. The soil is filled into 0.5 l pots and these are allowed to stand at 20° C.
Immediately after preparation, 5 maize corns are placed into each pot. After 3 days, the test insects are placed into the treated soil. After a further 7 days, the efficacy is determined. The efficacy is calculated from the number of maize plants which have emerged.

Test [10] concerns Phaedon cochleariae larvae. Nature of the test: Critical concentration test/root-systemic action, Phaedon cochleariae. As to conditions: 72 h, root-systemic, 3 days after infestation, read-out: Kill in %. As for the experimental part: as §2, §3
Soil is filled into 250 ml pots and these are planted with cabbage (Brassica oleracea). The active compound or the active compound combination can thus be taken up by the plant roots from the soil and transported into the leaves.
After 7 days, the leaves are populated with the abovementioned test animals. After a further 3 days, the kill in % is determined. 100% means that all test insects have been killed; 0% means that the number of insects which are still alive is the same as in the untreated control.

As to `N#C/N=C1/SCCN1Cc1ccc(Cl)nc1` [formula (I)], the Efficacy in % in test [1] is on record as 0%; in test [4] it was 0%; in [5] (10 g/ha), 0%; in test [5] (50 g/ha), 11%; in test [5] (500 g/ha, 3 days after inoculation), 46%. In addition, the Kill in % in test [2] is 15%; in [7] (concentration 0.00016 %) it was 5%; in [7] (concentration 0.0008 %), 40%; in test [8] (concentration 0.0008 %), 0%; in [8] (concentration 0.004 %) it was 60%. Further, the figures for the pest or weed control at 5 ppm in [3] (5.00 ppm in soil) and in test [10] (5.00 ppm in soil) were 0% and 80%, respectively. Further, the pest or weed control at 10 ppm in [3] (10.00 ppm in soil) turned out to be 50%; in test [10] (10.00 ppm in soil) it was 95%. Besides, in test [3] (20.00 ppm in soil), the pest or weed control at 20 ppm was 100%. Moreover, the “Efficacy in % calculated/found” value in test [6] (18.75 g/ha) is given as 20%; in test [6] (62.5 g/ha, 7 days after inoculation), 0%. The “Kill in % at active compound concentrations in ppm” value in test [9] was 1.25 ppm = 50%. For the same compound, the pest or weed control at 2.5 ppm in [10] (2.50 ppm in soil) came out at 0%.
